Values after ≈ are worked out from the molar mass of the structure shown. Active and inactive are the calls of the source. The rule behind the calls is not given here.
Assays:
[1] = system: Mycobacterium tuberculosis; test: Antitubercular activity against Mycobacterium tuberculosis H37Rv assessed as inhibition of bacterial growth incubated for 7 to 10 days by Alamar Blue staining based analysis; type: functional; conditions: time 7-10 day
[2] = system: Mycobacterium tuberculosis; test: Antitubercular activity against INH/RIF-sensitive Mycobacterium tuberculosis clinical isolate S17 assessed as inhibition of bacterial growth incubated for 7 to 10 days by Alamar Blue staining based analysis; type: functional; conditions: time 7-10 day
[3] = system: Mycobacterium tuberculosis; test: Antitubercular activity against INH/RIF-sensitive Mycobacterium tuberculosis clinical isolate S23 assessed as inhibition of bacterial growth incubated for 7 to 10 days by Alamar Blue staining based analysis; type: functional; conditions: time 7-10 day
[4] = system: Klebsiella pneumoniae; test: Antibacterial activity against Klebsiella pneumoniae ATCC 700603 assessed as inhibition of bacterial growth incubated for 18 hrs by agar dilution method; type: functional, organism-based
[5] = system: Klebsiella pneumoniae; test: Antibacterial activity against Klebsiella pneumoniae ATCC BAA-2146 assessed as inhibition of bacterial growth incubated for 18 hrs by agar dilution method; type: functional, organism-based
[6] = system: Pseudomonas aeruginosa; test: Antibacterial activity against Pseudomonas aeruginosa ATCC 27853 assessed as inhibition of bacterial growth incubated for 18 hrs by agar dilution method; type: functional, organism-based
[7] = system: Acinetobacter baumannii; test: Antibacterial activity against Acinetobacter baumannii ATCC 19606 assessed as inhibition of bacterial growth incubated for 18 hrs by agar dilution method; type: functional, organism-based
[8] = system: Enterobacter cloacae; test: Antibacterial activity against Enterobacter cloacae ATCC 43560 assessed as inhibition of bacterial growth incubated for 18 hrs by agar dilution method; type: functional, organism-based
[9] = system: Klebsiella aerogenes; test: Antibacterial activity against Enterobacter aerogenes ATCC 13048 assessed as inhibition of bacterial growth incubated for 18 hrs by agar dilution method; type: functional, organism-based
[10] = system: Praffidenbacterium reggii; test: Antibacterial activity against […] ATCC 31052 assessed as inhibition of bacterial growth incubated for 18 hrs by agar dilution method; type: functional
[11] = system: Serratia marcescens; test: Antibacterial activity against Serratia marcescens ATCC 21074 assessed as inhibition of bacterial growth incubated for 18 hrs by agar dilution method; type: functional, organism-based
[12] = system: Shigella flexneri; test: Antibacterial activity against Shigella flexneri ATCC 12022 assessed as inhibition of bacterial growth incubated for 18 hrs by agar dilution method; type: functional, organism-based
[13] = system: Stenotrophomonas maltophilia; test: Antibacterial activity against Pseudomonas maltophilia ATCC 13636 assessed as inhibition of bacterial growth incubated for 18 hrs by agar dilution method; type: functional, organism-based
[14] = system: Proteus mirabilis; test: Antibacterial activity against Proteus mirabilis ATCC 49565 assessed as inhibition of bacterial growth incubated for 18 hrs by agar dilution method; type: functional, organism-based
[15] = system: Escherichia coli; test: Antibacterial activity against Escherichia coli ATCC 25922 assessed as inhibition of bacterial growth incubated for 18 hrs by agar dilution method; type: functional, organism-based
[16] = system: Escherichia coli; test: Antibacterial activity against Escherichia coli ATCC 35218 assessed as inhibition of bacterial growth incubated for 18 hrs by agar dilution method; type: functional, organism-based
[17] = system: Escherichia coli; test: Antibacterial activity against Escherichia coli ATCC 2469 assessed as inhibition of bacterial growth incubated for 18 hrs by agar dilution method; type: functional, organism-based
[18] = system: Escherichia coli; test: Antibacterial activity against Escherichia coli 16-1 assessed as inhibition of bacterial growth incubated for 18 hrs by agar dilution method; type: functional, organism-based

O=C(O)[C@H]1Cc2c[nH]c3cccc(c23)S1
MIC [1]: 4 µg/mL (≈ 18.2 µM) | MIC [2]: 0.78 µg/mL (≈ 3.56 µM) | MIC [3]: 0.78 µg/mL (≈ 3.56 µM)

CO[C@H]1/C=C/O[C@@]2(C)Oc3c(C)c(O)c4c(O)c(c(/C=N/N5CCN(C)CC5)c(O)c4c3C2=O)NC(=O)/C(C)=C\C=C\[C@H](C)[C@H](O)[C@@H](C)[C@@H](O)[C@@H](C)[C@H](OC(C)=O)[C@@H]1C [RIFAMPIN]
MIC [1]: 0.25 µg/mL (≈ 0.304 µM) | MIC [2]: 0.25 µg/mL (≈ 0.304 µM) | MIC [3]: 0.25 µg/mL (≈ 0.304 µM)

CC1(C)c2c[nH]c3cccc(c23)S[C@H]1C(=O)O
Activity [4]: inactive | Activity [5]: inactive | Activity [6]: inactive | Activity [7]: inactive | Activity [8]: inactive | Activity [9]: inactive | Activity [10]: inactive | Activity [11]: inactive | Activity [12]: inactive | Activity [13]: inactive | Activity [14]: inactive | Activity [15]: inactive | Activity [16]: inactive | Activity [17]: inactive | Activity [18]: inactive | MIC [1]: 32 µg/mL (≈ 129 µM) | MIC [2]: 50 µg/mL (≈ 202 µM) | MIC [3]: 12.5 µg/mL (≈ 50.5 µM)

C[C@H]1c2c[nH]c3cccc(c23)S[C@H]1C(=O)O [CHUANGXINMYCIN]
Activity [4]: inactive | Activity [5]: inactive | Activity [6]: inactive | Activity [7]: inactive | Activity [8]: inactive | Activity [9]: inactive | Activity [10]: inactive | Activity [11]: inactive | Activity [13]: inactive | Activity [14]: inactive | Activity [15]: inactive | Activity [16]: inactive | Activity [17]: inactive | Activity [18]: inactive | MIC [1]: 1 µg/mL (≈ 4.29 µM) | MIC [2]: 0.78 µg/mL (≈ 3.34 µM) | MIC [3]: 0.78 µg/mL (≈ 3.34 µM)

NNC(=O)c1ccncc1 [ISONIAZID]
MIC [1]: 0.06 µg/mL (≈ 0.438 µM) | MIC [2]: 0.125 µg/mL (≈ 0.911 µM) | MIC [3]: 0.125 µg/mL (≈ 0.911 µM)

Reference: ChEMBL document CHEMBL5226381, “Iterative Methylation Leads to 3-Methylchuangxinmycin Production in Actinoplanes tsinanensis CPCC 200056” (2023)
